Source: patent US20230159619A1, “COMPOSITIONS AND METHODS FOR REGULATING IMMUNE SYSTEM ACTIVITY” (Olema Pharmaceuticals, Inc., priority 2017, published 2023)
Residue numbers refer to the chain shown, from its start.

Tests used:
[1] = molecular target: T1, endoxifen-responsive dominant negative Zap70 polypeptide including an ER(T2) domain having a G400L mutation (Homo sapiens, UniProt P03372, G400L/L544A/M543A); assay: Endoxifen pIC50 in NFAT-Luciferase reporter assay, G400L construct (Example 8); type: cell-based; conditions: Jurkat E6.1 cells, 10 ng G400L construct, 1:30 Immunocult CD3/CD28/CD2, 19 hours
T1 construct: expressed in transfected cells; host or cells: Jurkat E6.1 cells, transient transfection
T1 sequence (P03372 with tags, fused parts or gaps G400L/M543A/L544A): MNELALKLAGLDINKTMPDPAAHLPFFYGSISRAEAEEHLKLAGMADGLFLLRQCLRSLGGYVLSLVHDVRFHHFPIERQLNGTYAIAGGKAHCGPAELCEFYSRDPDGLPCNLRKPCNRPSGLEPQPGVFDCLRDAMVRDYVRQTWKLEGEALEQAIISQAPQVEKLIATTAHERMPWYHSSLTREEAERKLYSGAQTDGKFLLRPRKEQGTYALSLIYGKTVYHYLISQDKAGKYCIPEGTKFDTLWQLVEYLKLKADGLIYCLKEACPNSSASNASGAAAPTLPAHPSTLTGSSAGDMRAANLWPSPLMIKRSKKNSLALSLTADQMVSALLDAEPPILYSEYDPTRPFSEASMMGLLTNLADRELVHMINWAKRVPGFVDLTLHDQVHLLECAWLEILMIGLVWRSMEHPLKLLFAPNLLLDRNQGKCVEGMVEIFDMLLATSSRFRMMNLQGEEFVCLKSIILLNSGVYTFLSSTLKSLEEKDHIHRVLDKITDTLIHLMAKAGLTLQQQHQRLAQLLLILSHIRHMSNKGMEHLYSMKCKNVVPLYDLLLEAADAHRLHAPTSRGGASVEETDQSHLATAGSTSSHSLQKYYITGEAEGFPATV
Procedure: (§1) To examine how effective endoxifen is at relieving the inhibition or masking of a dominant negative signaling moiety of a trigger-responsive dominant negative signaling polypeptide by an ER(T2) domain including either a G400V or a G400L mutation, Jurkat E6.1 cells were transiently transfected with 90 ng NFAT-Luciferase reporter construct and 10 ng of a G400V or G400L construct. The transfected cells were stimulated the addition of 1:30 Immunocult CD3/CD28/CD2 tetrameric antibody mixture, and treated with or without endoxifen for 19 hours before assaying for luciferase activity. Results were normalized to maximum TCR stimulation with Immunocult alone, with 0% representing the activity of unstimulated transfected cells. Points represent mean activity from sextuplicate wells with error bars representing SEM. pIC50's were calculated using a variable slope sigmoidal dose-response model using GraphPad Prism.

[2] = molecular target: T2, endoxifen-responsive dominant negative Zap70 polypeptide including an ER(T2) domain having a G400V mutation (Homo sapiens, UniProt P03372, G400V/L544A/M543A); assay: Endoxifen pIC50 in NFAT-Luciferase reporter assay, G400V construct (Example 8); type: cell-based; conditions: Jurkat E6.1 cells, 10 ng G400V construct, 1:30 Immunocult CD3/CD28/CD2, 19 hours
T2 construct: expressed in transfected cells; host or cells: Jurkat E6.1 cells, transient transfection
T2 sequence (P03372 with tags, fused parts or gaps G400V/M543A/L544A): T1 sequence (P03372 with tags, fused parts or gaps G400L/M543A/L544A) with L415V
Procedure: as §1

[3] = tested on: IL2-Luciferase reporter; assay: IL2-Luciferase reporter assay with SHP1(210-595) constructs (Example 12); type: cell-based, human; conditions: Jurkat E6.1 cells, α-CD3 and α-CD28, with or without endoxifen, compared to empty vector controls
Procedure: To provide a means for assessing T cell activity, a construct containing a reporter gene, such as firefly luciferase (Luc), under the control of an IL2 response element can be used. In the present Example, Jurkat E6.1 cells were transiently transfected with an IL2-Luciferase reporter construct, as well as one of (a) empty vector; (b) an expression construct encoding SHP1(210-595); and (c) an expression construct encoding SHP1(210-595)-ER(T12). Transient transfections were performed using LTX and PLUS transfection reagent (ThermoFisher Scientific) according to manufacturer's protocols.
Transfected cells were treated in the absence or presence of 1:30 dilution of Immunocult CD3/CD28 tetrameric antibody mixture (StemCell Technologies, Canada), which stimulated T-cell activity. Stimulated cells were then further treated with RPMI 1640 media plus 4.8% FBS stripped with charcoal dextran (ThermoFisher Scientific), without Z-endoxifen or with 50 nM Z-endoxifen (Axon-Medchem). Luciferase activity (luminescence) was measured and reported as percent induction of IL2-Luciferase.

[4] = tested on: NFAT-Luciferase reporter; assay: NFAT-Luciferase reporter assay with SHP1(210-595) constructs, endoxifen dose response (FIG. 31); type: cell-based, human; conditions: Jurkat E6.1 cells, 1:40 Immunocult CD3/CD28, varying amounts of Z-endoxifen
Text: (§2) Reporter constructs included firefly luciferase (Luc) under the control of an NFAT response element and firefly luciferase (Luc) under the control of an IL2 response element. Data presented in the first panel is from Jurkat E6.1 cells transiently transfected with an NFAT-Luciferase reporter construct, as well as one of (a) empty vector; (b) an expression construct encoding SHP1(210-595); and (c) an expression construct encoding SHP1(210-595)-ER(T12). Data presented in the second panel is from Jurkat E6.1 cells transiently transfected with an IL2-Luciferase reporter construct, as well as one of (a) empty vector; (b) an expression construct encoding SHP1(210-595); and (c) an expression construct encoding SHP1(210-595)-ER(T12). Transient transfections were performed using LTX and PLUS transfection reagent (ThermoFisher Scientific) according to manufacturer's protocols. Transfected cells were treated in the presence of 1:40 dilution of Immunocult CD3/CD28 tetrameric antibody mixture (StemCell Technologies, Canada), which stimulated T-cell activity. Stimulated cells were then further treated with RPMI 1640 media plus 4.8% FBS stripped with charcoal dextran (ThermoFisher Scientific), with varying amounts of Z-endoxifen (Axon-Medchem) as indicated in FIG. 31. Luciferase activity (luminescence) was measured and reported as percent induction of IL2-Luciferase.

[5] = tested on: IL2-Luciferase reporter; assay: IL2-Luciferase reporter assay with SHP1(210-595) constructs, endoxifen dose response (FIG. 31); type: cell-based, human; conditions: Jurkat E6.1 cells, 1:40 Immunocult CD3/CD28, varying amounts of Z-endoxifen
Text: as §2

Row | IC50 [1] [nM] | IC50 [2] [nM] | inhibition of NFAT-Luciferase reporter expression [4] | inhibition of IL2-Luciferase reporter expression [5] | Compound | luciferase reporter expression (percent induction of IL2-Luciferase) [3]
1 | 1.58 | 6.31 | – | – | CC/C(=C(\c1ccc(O)cc1)c1ccc(OCCNC)cc1)c1ccccc1 [endoxifen] | –
2 | – | – | endoxifen-independent manner | endoxifen-independent manner | SHP1(210-595): constitutively active SHP1 phosphatase signaling moiety, SEQ ID NO: 23 | substantially reduced expression of luciferase reporter
